Reference: patent publication US8859590B2, “Inhibitors of BACE1 and methods for treating Alzheimer's disease” (Purdue Research Foundation, priority 2008, dated 2014)

Molecular target: BACE1 (Memapsin 2) (Homo sapiens, UniProt P56817)
Experiment: Inhibition of BACE1 (memapsin 2) catalytic activity, fluorogenic substrate FS-2
Type: biochemical
Conditions: inhibition constants of BACE1; pH 4, 37° C.
Experimental: Inhibition of BACE1 (Memapsin 2). Potency of compounds are determined by measurement of their inhibition of memapsin 2 catalytic activity toward a fluorescent substrate. […] Briefly, assays are performed at pH 4, 37° C., by pre-incubation of memapsin 2 enzyme with compound for 20 minutes. Activity measure is initiated by addition of a fluorogenic substrate FS-2 (Bachem Americas, Torrance, Calif.). Fluorescent signal increase over time is measured as a rate of hydrolysis of the peptide substrate. […]

Chain of BACE1 (Memapsin 2) (P56817 46-501): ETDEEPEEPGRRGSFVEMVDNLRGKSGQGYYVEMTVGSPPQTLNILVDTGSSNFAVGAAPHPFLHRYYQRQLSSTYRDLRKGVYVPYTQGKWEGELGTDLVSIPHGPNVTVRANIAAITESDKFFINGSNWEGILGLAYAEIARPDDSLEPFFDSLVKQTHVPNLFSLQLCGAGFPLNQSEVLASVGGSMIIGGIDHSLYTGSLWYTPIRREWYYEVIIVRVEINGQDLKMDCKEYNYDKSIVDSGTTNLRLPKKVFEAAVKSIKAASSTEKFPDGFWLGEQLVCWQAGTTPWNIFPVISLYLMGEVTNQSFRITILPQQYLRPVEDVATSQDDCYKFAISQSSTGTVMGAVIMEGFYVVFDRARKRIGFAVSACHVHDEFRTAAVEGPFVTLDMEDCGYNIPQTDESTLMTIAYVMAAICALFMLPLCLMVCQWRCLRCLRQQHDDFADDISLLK

Row | Structure (SMILES) | Ki
1 | Cc1csc(CN(C)C(=O)c2cccc(C(=O)N[C@H](CN[C@H](C(=O)NCC(C)C)[C@H](C)O)Cc3ccccc3)c2)n1 [Example 0637] | < 1000 µM
2 | COC(=O)[C@H](NC[C@H](Cc1ccccc1)NC(=O)c1cccc(C(=O)N(C)Cc2nc(C)cs2)c1)[C@@H](C)O [Example 0667] | > 1000 µM
3 | Cc1csc(CN(C)C(=O)c2cccc(C(=O)N[C@H](CN[C@@H]3c4ccccc4C[C@@H]3O)Cc3ccccc3)c2)n1 [Example 0647] | < 1000 µM
4 | COc1cccc([C@H](NC[C@H](Cc2ccccc2)NC(=O)c2cccc(C(=O)N(C)Cc3nc(C)cs3)c2)[C@H](O)Cc2ccccc2)c1 [Example 0449] | > 1000 µM
5 | COc1cccc([C@@H](NC[C@H](Cc2ccccc2)NC(=O)c2cccc(C(=O)N(C)Cc3nc(C)cs3)c2)[C@H](O)Cc2ccccc2)c1 [Example 0439] | > 1000 µM

Now from value to compound:

Row | Ki | Structure (SMILES)
6 | < 0.1 µM | CC(C)CNC[C@@H](NC[C@H](Cc1ccccc1)NC(=O)c1cc(C(=O)N[C@H](C)c2ccccc2)cc(N(C)S(C)(=O)=O)c1)[C@H](C)O [Example 1439]
7 | < 1000 µM | C[C@@H](NC(=O)c1cc(C(=O)N[C@H](CN[C@H](CO)Cc2ccccc2)Cc2ccccc2)cc(N(C)S(C)(=O)=O)c1)c1ccccc1 [Example 0397]
8 | < 1000 µM | C[C@@H](NC(=O)c1cc(C(=O)N[C@H](CN[C@@H]2c3ccccc3C[C@@H]2O)Cc2ccccc2)cc(N(C)S(C)(=O)=O)c1)c1ccccc1 [Example 0407]
9 | < 1000 µM | COC(=O)[C@H](NC[C@H](Cc1ccccc1)NC(=O)c1cc(C(=O)N[C@H](C)c2ccccc2)cc(N(C)S(C)(=O)=O)c1)[C@@H](C)O [Example 0417]
10 | < 0.1 µM | CC(C)CNC[C@@H](NC[C@H](Cc1ccccc1)NC(=O)c1cc(C(=O)N[C@H](C)c2ccccc2)cc(N(C)S(C)(=O)=O)c1)[C@@H](O)CC(C)C [Example 1479]
11 | < 1000 µM | C[C@@H](NC(=O)c1cc(C(=O)N[C@H](CN[C@H]2c3ccccc3C[C@H]2O)Cc2ccccc2)cc(N(C)S(C)(=O)=O)c1)c1ccccc1 [Example 0427]
